Legend:
Experiment in all cases: relative viability (nuclei count vs DMSO), 5 days (fraction); higher = more cells survive
[1] = compound: OCc1c[nH]c2ccccc12 [Indole-3-carbinol] + CC(C)C[C@H](NC(=O)[C@H](Cc1ccccc1)NC(=O)c1cnccn1)B(O)O [Bortezomib] (partner 0.002 µM)
Outline: (§1)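 Relative viability divides the nuclei count in treated wells by that in vehicle wells. Lung cancer cell lines were seeded in 1536-well plates, dosed by pin tool the next day, and fixed and stained after 5 days in one step with final 0.05% Triton X-100, 1% formaldehyde and 1 ug/ml Hoechst. Dosing was a single drug or a fixed anchor-drug dose plus five library-drug doses (not always all listed) in √10 steps, and values are medians of duplicate plates imaged at 4×.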

[2] = compound: OCc1c[nH]c2ccccc12 [Indole-3-carbinol] + C[C@@H](Oc1cc(-c2cnn(C3CCNCC3)c2)cnc1N)c1c(Cl)ccc(F)c1Cl [Crizotinib] (partner 1 µM)
Outline: as §1

[3] = compound: OCc1c[nH]c2ccccc12 [Indole-3-carbinol] + CS(=O)(=O)N1CCN(Cc2cc3nc(-c4cccc5[nH]ncc45)nc(N4CCOCC4)c3s2)CC1 [Pictilisib] (partner 1 µM)
Outline: as §1

[4] = compound: OCc1c[nH]c2ccccc12 [Indole-3-carbinol] + C[C@]1(O)C[C@@H](c2nc(-c3ccc4ccc(-c5ccccc5)nc4c3)c3c(N)nccn32)C1 [Linsitinib] (partner 1 µM)
Outline: as §1

[5] = compound: OCc1c[nH]c2ccccc12 [Indole-3-carbinol] + Cc1nc(NC(=O)N2CCC[C@H]2C(N)=O)sc1-c1ccnc(C(C)(C)C(F)(F)F)c1 [Alpelisib] (partner 2 µM)
Outline: as §1

Row | Cell Line | relative viability ([1]; first compound 0.253 µM) | relative viability ([1]; first compound 0.8 µM) | relative viability ([1]; first compound 2.53 µM) | relative viability ([1]; first compound 8 µM) | relative viability ([2]; first compound 0.253 µM) | relative viability ([2]; first compound 0.8 µM) | relative viability ([2]; first compound 2.53 µM) | relative viability ([2]; first compound 8 µM) | relative viability ([3]; first compound 0.253 µM) | relative viability ([3]; first compound 0.8 µM) | relative viability ([3]; first compound 2.53 µM) | relative viability ([3]; first compound 8 µM) | relative viability ([4]; first compound 0.253 µM) | relative viability ([4]; first compound 0.8 µM) | relative viability ([4]; first compound 2.53 µM) | relative viability ([4]; first compound 8 µM) | relative viability ([5]; first compound 0.253 µM) | relative viability ([5]; first compound 0.8 µM) | relative viability ([5]; first compound 2.53 µM) | relative viability ([5]; first compound 8 µM)
1 | LC-2-ad | 1.13 | 1.11 | 0.994 | 0.974 | 0.514 | 0.439 | 0.484 | 0.42 | 0.439 | 0.502 | 0.466 | 0.464 | 0.827 | 0.791 | 0.806 | 0.783 | 0.91 | 0.874 | 0.945 | 0.856
2 | LCLC-97TM1 | 0.651 | 0.686 | 0.778 | 0.447 | 0.368 | 0.534 | 0.389 | 0.442 | 0.139 | 0.224 | 0.177 | 0.223 | 0.163 | 0.159 | 0.178 | 0.174 | 0.203 | 0.277 | 0.242 | 0.227
3 | LCLC-103H | 1.06 | 1.14 | 1.2 | 0.958 | 1.13 | 1.12 | 1.01 | 0.977 | 0.546 | 0.537 | 0.702 | 0.476 | 1.13 | 1.04 | 1.12 | 0.972 | 0.869 | 0.882 | 0.923 | 0.899
4 | LOU-NH91 | 0.497 | 0.459 | 0.566 | 0.522 | 0.771 | 0.61 | 0.71 | 0.714 | 0.488 | 0.472 | 0.539 | 0.57 | 1.01 | 0.899 | 0.937 | 0.943 | 0.746 | 0.706 | 0.703 | 0.728
5 | LU99A | 1.31 | 1.11 | 1.06 | 1.02 | 0.569 | 0.568 | 0.532 | 0.506 | 0.318 | 0.367 | 0.302 | 0.35 | 0.501 | 0.556 | 0.428 | 0.536 | 0.508 | 0.548 | 0.582 | 0.451
6 | LXF-289 | 1.03 | 1.1 | 0.944 | 0.893 | 0.863 | 0.933 | 0.824 | 0.729 | 0.837 | 0.814 | 0.807 | 0.747 | 0.977 | 1.03 | 0.996 | 0.892 | 1.03 | 1.1 | 1.09 | 0.99
7 | NCI-H23 | 0.898 | 1.16 | 0.846 | 0.975 | 0.679 | 0.497 | 0.55 | 0.509 | 0.434 | 0.485 | 0.581 | 0.451 | 0.668 | 0.649 | 0.722 | 0.485 | 0.618 | 0.723 | 0.637 | 0.629
8 | NCI-H322M | 1.18 | 1.25 | 1.3 | 1.07 | 1.09 | 0.989 | 1 | 0.892 | 0.45 | 0.487 | 0.486 | 0.502 | 0.9 | 0.899 | 0.974 | 0.839 | 0.774 | 0.82 | 0.86 | 0.8
9 | NCI-H441 | 0.367 | 0.938 | 0.381 | 0.375 | 0.724 | 0.609 | 0.824 | 0.76 | 0.479 | 0.491 | 0.539 | 0.508 | 0.582 | 0.688 | 0.576 | 0.441 | 0.796 | 0.831 | 0.794 | 0.736
10 | NCI-H460 | 1.14 | 1.14 | 1.11 | 1.03 | 1.03 | 0.895 | 0.925 | 0.851 | 0.479 | 0.271 | 0.373 | 0.337 | 0.773 | 0.875 | 0.713 | 0.689 | 0.458 | 0.457 | 0.563 | 0.517
11 | NCI-H520 | 0.543 | 0.613 | 0.498 | 0.563 | 0.826 | 0.948 | 1.02 | 0.754 | 0.287 | 0.255 | 0.27 | 0.254 | 1.04 | 0.872 | 1.24 | 0.854 | 0.911 | 1.07 | 1.04 | 0.849
12 | NCI-H596 | 0.996 | 0.773 | 0.987 | 1.01 | 0.876 | 1.13 | 0.989 | 1 | 0.368 | 0.416 | 0.364 | 0.411 | 1.02 | 1.08 | 1.07 | 0.954 | 0.387 | 0.48 | 0.417 | 0.47
13 | NCI-H647 | 1.15 | 0.718 | 1.04 | 0.883 | 1.23 | 1.13 | 1.04 | 1.01 | 0.469 | – | 0.489 | 0.437 | 1.08 | 1.44 | 1.13 | 1.04 | 1.22 | 1.15 | 1.24 | 1.09
14 | NCI-H650 | 0.955 | 0.748 | 0.83 | 0.746 | 0.716 | 0.729 | 0.8 | 0.638 | 0.899 | 0.871 | 0.929 | 0.913 | 0.948 | 0.773 | 0.909 | 0.712 | 1.06 | 1.18 | 1.05 | 0.953
15 | NCI-H661 | 0.94 | 0.602 | 0.748 | 0.746 | 1.05 | – | 1.16 | 0.977 | 0.389 | 0.325 | 0.448 | 0.384 | 0.542 | 0.378 | 0.623 | 0.676 | 0.793 | 0.502 | 0.74 | 0.594
16 | NCI-H727 | 0.872 | 0.842 | 0.897 | 0.828 | 0.795 | 1.05 | 0.906 | 0.832 | 0.263 | 0.409 | 0.477 | 0.494 | 0.178 | 0.31 | 0.268 | 0.283 | 0.583 | 0.562 | 0.535 | 0.603

From the supplement of paper PMC10307832
